Legend:
[1] = test system: Puccinia recondita; experiment: In vivo preventive test on Puccinia recondita (brown rust on wheat); conditions: wheat plants sprayed 24 h before contamination, grading 12 days after contamination
Experimental: Plants, used as controls, are treated with the mixture of acetone/tween/DMSO/water not containing the active material. After 24 hours, the plants are contaminated by spraying the leaves with an aqueous suspension of Puccinia recondita spores (100 000 spores per ml). […] Grading (% of efficacy) is carried out 12 days after the contamination, in comparison with the control plants.

[2] = test system: Alternaria brassicae; experiment: In vivo preventive test on Alternaria brassicae (leaf spot on radish); conditions: dose 500 ppm; radish plants sprayed 24 h before contamination; grading 6 days after contamination vs control plants
Experimental: Radish plants (“Pernod Clair” variety), sown in starter cups on a 50/50 peat soil-pozzolana substrate and grown at 17° C., are treated at the cotyledon stage by spraying with the active ingredient prepared as described above. Plants, used as controls, are treated with the mixture of acetone/tween/DMSO/water not containing the active material. After 24 hours, the plants are contaminated by spraying the cotyledons with an aqueous suspension of Alternaria brassicae spores (50 000 spores per ml). The spores are collected from a 15-day-old culture. […] Grading (% of efficacy) is carried out 6 days after the contamination, in comparison with the control plants.

[3] = test system: Sphaerotheca fuliginea; experiment: In vivo preventive test on Sphaerotheca fuliginea (powdery mildew on cucurbits); conditions: gherkin plants sprayed 24 h before contamination, grading 12 days after contamination
Experimental: Gherkin plants (“Vert petit de Paris” variety), sown in starter cups on a 50/50 peat soil-pozzolana substrate and grown at 24° C., are treated at the Z11 cotyledon stage by spraying with the active ingredient prepared as described above. Plants, used as controls, are treated with the mixture of acetone/tween/DMSO/water not containing the active material. After 24 hours, the plants are contaminated by spraying the cotyledons with an aqueous suspension of Sphaerotheca fuliginea spores (100 000 spores per ml). The spores are collected from infected plants. The contaminated to gherkin plants are incubated at about 20° C. and at 70-80% relative humidity. Grading (% of efficacy) is carried out 12 days after the contamination, in comparison with the control plants.

[4] = test system: Pyrenophora teres; experiment: In vivo preventive test on Pyrenophora teres (net blotch on barley); conditions: barley plants sprayed 24 h before contamination, grading 14 days after contamination
Experimental: Barley plants (“Plaisant” variety), sown in starter cups on a 50/50 peat soil-pozzolana substrate and grown at 22° C., are treated at the 1-leaf stage (10 cm height) by spraying with the active ingredient prepared as described above. Plants, used as controls, are treated with the mixture of acetone/tween/DMSO/water not containing the active material. After 24 hours, the plants are contaminated by spraying the leaves with an aqueous suspension of Pyrenophora teres spores (12 000 spores per ml). The spores are collected from a 12-day-old culture. […] Grading (% of efficacy) is carried out 14 days after the contamination, in comparison with the control plants.

[5] = Measurement of log P values by HPLC on reversed phase columns (EEC directive 79/831 Annex V.A8); type: physicochemical
[6] = test system: Uromyces appendiculatus; experiment: In vivo preventive test on Uromyces appendiculatus (bean rust); conditions: bean plants sprayed 24 h before contamination, grading 11 days after contamination
Experimental: Bean plants (“Saxa” variety), sown in starter cups on a 50/50 peat soil-pozzolana substrate and grown at 24° C., are treated at the 2-leaf stage (9 cm height) by spraying with the active ingredient prepared as described above. Plants, used as controls, are treated with the mixture of acetone/tween/DMSO/water not containing the active material. After 24 hours, the plants are contaminated by spraying the leaves with an aqueous suspension of Uromyces appendiculatus spores (150 000 spores per ml). […] Grading (% of efficacy) is carried out 11 days after the contamination, in comparison with the control plants.

[7] = test system: Septoria tritici; experiment: In vivo preventive test on Septoria tritici (leaf spot on wheat); conditions: dose 500 ppm; wheat plants sprayed 24 h before contamination; grading 24 days after contamination
Experimental: Wheat plants (“Scipion” variety), sown in starter cups on a 50/50 peat soil-pozzolana substrate and grown at 22° C., are treated at the 1-leaf stage (10 cm height) by spraying with the active ingredient prepared as described above. Plants, used as controls, are treated with the mixture of acetone/tween/DMSO/water not containing the active material. After 24 hours, the plants are contaminated by spraying the leaves with an aqueous suspension of cryopreserved Septoria tritici spores (500 000 spores per ml). […] Grading (% of efficacy) is carried out 24 days after the contamination, in comparison with the control plants.

SMILES	Eff. % ([1]; dose 500 ppm)	Eff. % [2]	Eff. % ([3]; dose 500 ppm)	Eff. % ([4]; dose 500 ppm)	logP ([5]; method marked [a])	Eff. % ([6]; dose 500 ppm)	Eff. % [7]	logP ([5]; method marked [b])	Eff. % ([3]; dose 100 ppm)	Eff. % ([4]; dose 100 ppm)	Eff. % ([1]; dose 100 ppm)	Eff. % ([6]; dose 100 ppm)
CON=C1c2cccc(NC(=O)c3c(C(F)F)nn(C)c3F)c2CC1(C)C (mixture of isomers) [Example 61]	86%	75%	–	–	–	–	–	–	–	–	–	–
CCC1(C)CCc2c(NC(=O)c3c(C(F)F)nn(C)c3Cl)cccc21 (single isomer, unassigned) [Example 53]	100%	79%	98%	80%	4.04[a]	100%	–	–	–	–	–	–
CC(C)C1Cc2c(NC(=O)c3c(C(F)F)nn(C)c3F)cccc2C1(C)C (stereo not drawn) [Example 5]	100%	100%	100%	–	4.69[a]	100%	93%	–	–	–	–	–
CC(C)C1Cc2c(NC(=O)c3c(C(F)F)nn(C)c3Cl)cccc2C1(C)C (stereo not drawn) [Example 6]	100%	78%	100%	–	4.95[a]	100%	–	–	–	–	–	–
CC1CC(C)(C)c2c(Cl)ccc(NC(=O)c3c(C(F)F)nn(C)c3Cl)c21 (stereo not drawn) [Example 12]	93%	94%	–	–	4.6[a];	96%	–	4.53[b]	–	–	–	–
Cn1nc(C(F)F)c(C(=O)Nc2cccc3c2CCC32CC2)c1Cl [Example 14]	100%	97%	–	–	3.58[a]	100%	–	–	–	–	–	–
CCCCON=C1CCc2c(NC(=O)c3c(C(F)F)nn(C)c3Cl)cccc21 [Example 22]	–	86%	–	–	4.24[a]	–	–	–	–	–	–	–
CCCON=C1CCc2c(NC(=O)c3c(C(F)F)nn(C)c3Cl)cccc21 [Example 23]	–	–	70%	–	3.76[a]	82%	90%	–	–	–	–	–
CCCCON=C1CCc2c(NC(=O)c3c(C(F)F)nn(C)c3F)cccc21 [Example 24]	–	–	–	–	3.96[a]	–	80%	–	–	–	–	–
CCON=C1CCc2c(NC(=O)c3c(C(F)F)nn(C)c3Cl)cccc21 [Example 26]	94%	72%	–	–	3.27[a]	100%	–	–	–	–	–	–
CCCON=C1CCc2c(NC(=O)c3c(C(F)F)nn(C)c3F)cccc21 [Example 28]	–	71%	–	–	3.52[a]	–	–	–	–	–	–	–
CCC1Cc2cccc(NC(=O)c3c(C(F)F)nn(C)c3Cl)c2C1 (stereo not drawn) [Example 30]	100%	–	–	83%	4.01[a]	100%	70%	–	–	–	–	–
CC1CCc2cccc(NC(=O)c3c(C(F)F)nn(C)c3Cl)c21 (stereo not drawn) [Example 31]	100%	–	–	–	3.44[a]	100%	80%	–	–	–	–	–
CC1CC(C(C)C)c2cccc(NC(=O)c3c(C(F)F)nn(C)c3Cl)c21 (stereo not drawn) [Example 35]	97%	79%	–	–	4.46[a]	100%	80%	–	–	–	–	–
CC1CC(C)(C)c2c(F)ccc(NC(=O)c3c(C(F)F)nn(C)c3Cl)c21 (stereo not drawn) [Example 37]	–	97%	100%	75%	4.11[a]	100%	–	–	–	–	–	–
CC(C)CC1CCc2c(NC(=O)c3c(C(F)F)nn(C)c3Cl)cccc21 (stereo not drawn) [Example 40]	100%	97%	–	80%	4.87[a]	100%	–	–	–	–	–	–

SMILES	Eff. % ([1]; dose 500 ppm)	Eff. % [2]	Eff. % ([3]; dose 500 ppm)	Eff. % ([4]; dose 500 ppm)	logP ([5]; method marked [a])	Eff. % ([6]; dose 500 ppm)	Eff. % [7]	logP ([5]; method marked [b])	Eff. % ([3]; dose 100 ppm)	Eff. % ([4]; dose 100 ppm)	Eff. % ([1]; dose 100 ppm)	Eff. % ([6]; dose 100 ppm)
CC(C)CC1CCc2c(NC(=O)c3c(C(F)F)nn(C)c3F)cccc21 (stereo not drawn) [Example 41]	97%	95%	–	–	4.59[a]	100%	–	–	–	–	–	–
CC(C)C1Cc2cccc(NC(=O)c3c(C(F)F)nn(C)c3Cl)c2C1C (stereo not drawn) [Example 47]	83%	–	–	–	4.68[a]	86%	80%	–	–	–	–	–
CC(C)C1Cc2cccc(NC(=O)c3c(C(F)F)nn(C)c3Cl)c2C1C (stereo not drawn) [Example 48]	100%	–	100%	–	4.49[a]	100%	80%	–	–	–	–	–
CC1CC2(CC2)c2cccc(NC(=S)c3c(C(F)F)nn(C)c3Cl)c21 (stereo not drawn) [Example 49]	94%	–	–	83%	3.85[a]	100%	71%	–	–	–	–	–
CC(C)C1Cc2cccc(NC(=O)c3c(C(F)F)nn(C)c3Cl)c2C1C (stereo not drawn) [Example 56]	83%	–	–	–	4.68[a]	86%	80%	–	–	–	–	–
CC(C)CC1CCc2c(NC(=O)c3c(C(F)F)nn(C)c3Cl)cccc21 (stereo not drawn) [Example 66]	100%	97%	–	80%	–	100%	–	–	–	–	–	–
CC1CC(CC(C)(C)C)c2cccc(NC(=O)c3c(C(F)F)nn(C)c3Cl)c21 (stereo not drawn) [Example 69]	98%	–	100%	–	5.22[a]	100%	71%	–	–	–	–	–
Cn1nc(C(F)F)c(C(=O)Nc2cccc3c2CC(C)(C)C3)c1F [Example 72]	98%	–	100%	–	3.64[a]	100%	71%	–	–	–	–	–
Cn1nc(C(F)F)c(C(=S)Nc2cccc3c2CCC3C(C)(C)C)c1F (stereo not drawn) [Example 75]	100%	–	100%	–	4.51[a]	100%	79%	–	–	–	–	–
CCON=C1CC(C)c2c(NC(=O)c3c(C(F)F)nn(C)c3F)cccc21 (stereo not drawn) [Example 83]	88%	86%	–	83%	3.18[a]	95%	–	–	–	–	–	–
CCC1Cc2c(NC(=O)c3c(C(F)F)nn(C)c3F)cccc2C1(C)C (stereo not drawn) [Example 86]	100%	96%	–	92%	4.34[a]	100%	93%	–	–	–	–	–
CC1CC(CC(C)(C)C)c2cccc(NC(=S)c3c(C(F)F)nn(C)c3F)c21 (stereo not drawn) [Example 87]	98%	75%	98%	–	5.08[a]	100%	–	–	–	–	–	–
CCCON=C1CC(C)c2c(NC(=O)c3c(C(F)F)nn(C)c3F)cccc21 (stereo not drawn) [Example 91]	94%	86%	–	83%	3.67[a]	100%	–	–	–	–	–	–
CCC1(CC)Cc2c(NC(=O)c3c(C(F)F)nn(C)c3Cl)cccc2C1C (stereo not drawn) [Example 93]	98%	–	98%	–	4.92[a]	100%	75%	–	–	–	–	–
Cn1nc(C(F)F)c(C(=O)Nc2cccc3c2CCC3C(C)(C)C)c1F (stereo not drawn) [Example 97]	98%	–	89%	83%	4.39[a]	100%	79%	–	–	–	–	–
CCC1Cc2c(NC(=S)c3c(C(F)F)nn(C)c3F)cccc2C1(C)C (stereo not drawn) [Example 106]	–	–	–	–	4.46[a]	–	–	–	89%	80%	100%	94%

From patent US9375005B2, “5-halogenopyrazole indanyl carboxamides” (BAYER CROPSCIENCE AG, priority 2012, dated 2016)
